Measured values reported in patent US20230131966A1, “FUNGICIDAL AMIDES” (FMC Corporation, priority 2020, published 2023).

Key:
Format in all cases: in vivo
Phakopsora pachyrhizi = assay: Test A: Asian soybean rust control on soybean seedlings; details: 250 ppm; soybean seedlings; 100 = 100% disease control, 0 = no control
[1] = system: Puccinia recondita f. sp. tritici; assay: Test B: wheat leaf rust control on wheat seedlings; details: 250 ppm; wheat seedlings; 100 = 100% disease control, 0 = no control
Zymoseptoria tritici = assay: Test C: wheat leaf blotch control on wheat seedlings; details: 250 ppm; wheat seedlings; 100 = 100% disease control, 0 = no control
Plasmopara viticola = assay: Test D: grape downy mildew control on grape seedlings; details: 250 ppm, 100 = 100% disease control, 0 = no control
Botrytis cinerea = assay: Test E: tomato Botrytis control on tomato seedlings; details: 250 ppm, 100 = 100% disease control, 0 = no control
Phytophthora infestans = assay: whole plant or invertebrate; details: 250 ppm; tomato seedlings; 100 = 100% disease control, 0 = no control
[2] = system: Erysiphe graminis f. sp. tritici; assay: Test G: wheat powdery mildew control on wheat seedlings; details: 250 ppm, 100 = 100% disease control, 0 = no control

Row | Structure (SMILES) | Test A disease control rating (Phakopsora pachyrhizi) [%] | Test B disease control rating [1] [%] | Test C disease control rating (Zymoseptoria tritici) [%] | Test D disease control rating (Plasmopara viticola) [%] | Test E disease control rating (Botrytis cinerea) [%] | Test F disease control rating (Phytophthora infestans) [%] | Test G disease control rating [2] [%]
1 | COc1ccnc(C(=O)NC(C)C(=O)OC(C)c2cccc3ccccc23)c1O (centres unmarked) [Compound 114] | 100 | 100 | 77 | 63 | 0 | 0 | 0
2 | CCC(OC(=O)[C@H](C)NC(=O)c1nccc(OC)c1OCOC(=O)C(C)C)c1ccc(C2CCCCC2)cc1 (single isomer, unassigned) [Compound 132] | 75 | 68 | 30 | 29 | 0 | 0 | 0
